Counter-ions that a name gives are not always drawn.
System: not given
Test: not given
Settings: not given
For CC(C)OC(=O)C(=O)[C@H](Cc1ccccc1)NC(=O)[C@@H]1CSC(c2ccccc2)N1C(=O)[C@@H](NC(=O)N(C)CCN)C(C)C (mixture of isomers) (as salt: hydrochloride) [Compound No. 6-2, Isopropyl (3S)-3-[(2RS,4R)-3-[(2S)-2-[[N-(2-aminoethyl)-N-methylamino]carbonyl]amino]-3-methyl-1-oxobutyl]-2-phenyl-1,3-thiazolidin-4-ylcarboxamidol-2-oxo-4-phenylbutyrate hydrochloride], the melting point was 90 °C.

Molecular target: T1, chymase extracted from a dog cardiac tissue (Canis lupus familiaris, UniProt P21842)
T1 construct: a heart is enucleated, and left ventricle is separated; from tissue; host or cells: beagle heart, left ventricle
T1 sequence (P21842 22-249): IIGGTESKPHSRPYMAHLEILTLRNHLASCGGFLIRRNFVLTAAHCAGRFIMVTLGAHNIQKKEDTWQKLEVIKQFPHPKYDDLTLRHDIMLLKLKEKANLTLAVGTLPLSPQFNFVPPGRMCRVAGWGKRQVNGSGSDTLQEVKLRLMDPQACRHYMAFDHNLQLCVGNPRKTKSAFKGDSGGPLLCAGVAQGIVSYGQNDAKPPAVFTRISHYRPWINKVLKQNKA
Test: Chymase inhibitory effect (liberation of His-Leu from angiotensin I, fluorescence intensity)
Assay type: biochemical
Settings: angiotensin I substrate, 37° C. for one hour, pH 8 reaction buffer; read-out: IC50 (concentration required to inhibit the chymase enzymatic activity by 50%)
Source text: Chymase (enzyme) causes angiotensin I (substrate) to liberate a dipeptide (His-Leu) by the enzyme reaction with the substrate. It was reported that an enzymatic activity of chymase can be measured by measuring fluorescence intensity of the resulting peptide (Biochem. Biophys. Res. Com., 149 (3) 1186 (1987)). Since drugs having chymase inhibitory activities suppress this liberation of the dipeptide, the chymase inhibitory activities of the drugs can be measured by measuring fluorescence intensity. In the present pharmacological test, chymase inhibitory effects of the present compounds were studied by using chymase extracted from a dog cardiac tissue (J. Biol. Chem., 265 (36), 22348 (1990)).
1. A beagle is killed by drawing blood under Nembutal anesthesia, a heart is enucleated, and left ventricle is separated.
2. This left ventricle is finely minced, and the tissue weight is measured.
3. A 0.02 M Tris-HCl buffer (pH 7.4) is added to the tissue in an amount of 10 times by volume the tissue weight. This mixture is homogenized at 8,000 rpm for 20 seconds and then centrifuged at 4° C. and 21,000 rpm for 30 minutes, and the resulting supernatant is discarded.
(§1) 4. The same procedure as the above 3 is repeated twice for the residue. Then, a 0.02 M Tris-HCl buffer (pH 7.4) containing 1% Triton X-100 and 0.01 M potassium chloride is added to the residue in an amount of 10 times by volume the amount of the residue. This mixture is homogenized at 8,000 rpm for 20 seconds, then incubated at 4° C. for one hour and centrifuged at 21,000 rpm for 30 minutes, and the supernatant is discarded.
as §1, with “5. A” for “4. The same procedure as the above 3 is repeated twice for the residue. Then, a”, “0.5” for “0.01”
6. A 0.02 M Tris-HCl buffer (pH 7.4) containing 1% Triton X-100 and 2.0 M potassium chloride is added to the residue in an amount of 10 times the amount of the residue. This mixture is homogenized at 8,000 rpm for 20 seconds, then incubated at 4° C. for one hour and centrifuged at 21,000 rpm for 30 minutes. The obtained supernatant is used as a chymase enzyme solution.
Tris-HCl and disodium ethylenediaminetetraacetate are dissolved in water so that their concentrations are 92.3 mM and 12.0 mM respectively to prepare a reaction buffer adjusted to pH 8.
Angiotensin I is dissolved in water to prepare a 1.54 mM substrate solution.
A test compound is dissolved in dimethyl sulfoxide to prepare 3.0×10^−3 M, 3.0×10^−4 M, 3.0×10^−5 M and 3.0×10^−6 M test com solutions.
1. The reaction buffer (32.5 μl), the substrate solution (75.0 μl), the chymase enzyme solution (37.5 μl) and the test compound solution (5 μl) are mixed.
2. The obtained mixture is incubated at 37° C. for one hour.
3. To the mixture is added 15% trichloroacetic acid (225 μl), and the whole is centrifuged at 4° C. and 14,000 rpm for five minutes.
4. The supernatant is taken out. A 1% orthophthalaldehyde/methanol solution (165 μl) is added to 300 μl of this supernatant, and the whole is stirred and allowed to stand at room temperature for 10 minutes.
5. 1.5 M Hydrochloric acid (300 μl) is added to the resulting mixture, and the whole is stirred and centrifuged at 4° C. and 14,000 rpm for two minutes.
6. The supernatant is taken out and irradiated with light having a wavelength of 340 nm, and fluorescence intensity is measured at a wavelength of 455 nm.
The blank of this test is defined as follows. The same procedures as in the above 1 to 6 are repeated provided that a 20 mM Tris-HCl buffer (pH 7.4, 37.5 μl) containing 1% Triton X-100 and 2.0 M potassium chloride is used instead of the chymase enzyme solution (37.5 μl), and dimethyl sulfoxide (5 μl) is used instead of the test compound solution (5 μl) in the above 1. The obtained […] is the blank value. […]
CC(C)OC(=O)C(=O)[C@H](Cc1ccccc1)NC(=O)[C@@H]1CSC(c2ccccc2)N1C(=O)[C@@H](NC(=O)N(C)CCN)C(C)C (mixture of isomers) [Compound No. 6-2, Isopropyl (3S)-3-[(2RS,4R)-3-[(2S)-2-[[N-(2-aminoethyl)-N-methylamino]carbonyl]amino]-3-methyl-1-oxobutyl]-2-phenyl-1,3-thiazolidin-4-ylcarboxamidol-2-oxo-4-phenylbutyrate hydrochloride] showed an IC50 of 57 nM.
In the case of CC(C)OC(=O)C(=O)[C@H](Cc1ccccc1)NC(=O)[C@@H]1CSCN1C(=O)[C@@H](NC(=O)OCc1ccccc1)C(C)C [Compound No. 2-1, Isopropyl (3S)-3-[(4R)-3-[(2S)-3-methyl-1-oxo-2-[[(phenylmethoxy)carbonyl]amino]butyl]-1,3-thiazolidin-4-ylcarboxamido]-2-oxo-4-phenylbutyrate], the IC50 is reported as 47 nM.
COCC(=O)N[C@H](C(=O)N1CSC[C@H]1C(=O)N[C@@H](Cc1ccccc1)C(=O)C(=O)OC(C)C)C(C)C [Compound No. 2-19, Isopropyl (3S)-3-[(4R)-3-[(2S)-2-[(methoxymethyl)carbonyl]amino-3-methyl-1-oxobutyl]-1,3-thiazolidin-4-ylcarboxamido]-2-oxo-4-phenylbutyrate] showed an IC50 of 56 nM.
For CC(C)OC(=O)C(=O)[C@H](Cc1ccccc1)NC(=O)[C@@H]1CSCN1C(=O)[C@@H](NC(=O)COc1ccccc1)C(C)C [Compound No. 2-20, Isopropyl (3S)-3-[(4R)-3-[(2S)-3-methyl-1-oxo-2-[[(phenoxylmethyl)carbonyl]amino]butyl]-1,3-thiazolidin-4-ylcarboxamido]-2-oxo-4-phenylbutyrate], the IC50 was 44 nM.
For CC(C)OC(=O)C(=O)[C@H](Cc1ccccc1)NC(=O)[C@@H]1CSCN1C(=O)[C@@H](NC(=O)OC(C)(C)C)C(C)C [Compound No. 2-21, Isopropyl (3S)-3-[(4R)-3-[(2S)-2-(tert-butoxycarbonyl)amino-3-methyl-1-oxobutyl]-1,3-thiazolidin-4-ylcarboxamido]-2-oxo-4-phenylbutyrate], the IC50 was 26 nM.
Work on CC(C)OC(=O)C(=O)[C@H](Cc1ccccc1)NC(=O)[C@@H]1CSCN1C(=O)[C@@H](NC(=O)N(C)Cc1ccccc1)C(C)C [Compound No. 2-25, Isopropyl (3S)-3-[(4R)-3-[(2S)-3-methyl-2-[[N-methyl-N-(phenylmethyl)amino]carbonyl]amino-1-oxobutyl]-1,3-thiazolidin-4-ylcarboxamido]-2-oxo-4-phenylbutyrate] yielded an IC50 of 31 nM.
CC(C)OC(=O)C(=O)[C@H](Cc1ccccc1)NC(=O)[C@@H]1CSCN1C(=O)[C@@H](NC(=O)N(C)CCNC(=O)OC(C)(C)C)C(C)C [Compound No. 2-26, Isopropyl (3S)-3-[(4R)-3-[(2S)-2-[[N-[2-[(tert-butoxycarbonyl)amino]ethyl]-N-methylamino]carbonyl]amino-3-methyl-1-oxobutyl]-1,3-thiazolidin-4-ylcarboxamido]-2-oxo-4-phenylbutyrate] showed an IC50 of 12 nM.
CC(C)[C@H](NC(=O)OCc1ccccc1)C(=O)N1CSC[C@H]1C(=O)N[C@@H](Cc1ccccc1)C(=O)C(=O)OCc1ccccc1 [Compound No. 2-37, Phenylmethyl (3S)-3-[(4R)-3-[(2S)-3-methyl-1-oxo-2-[[(phenylmethoxy)carbonyl]amino]butyl]-1,3-thiazolidin-4-ylcarboxamido]-2-oxo-4-phenylbutyrate] showed an IC50 of 66 nM.

Reference: patent US6410576B1, “Thiazolidine derivatives” (Santen Pharmaceutical Co., Ltd., priority 1998, dated 2002)
